Structure (SMILES)	melting point
Fc1cc2nn(CCC#Cc3ccccn3)nc2cc1F	131 to 132 °C
CCCCCCC(C(=O)N[C@@H](CC(=O)O)C(=O)O)n1cnc2cc(-c3ccccc3-c3nn[nH]n3)ccc21 (stereo not given in full)	190 to 195 °C
CCOc1nc2ccccc2n(-c2ccc(Cl)cc2)c1=O	244 to 246 °C
CCCCCCCCCCCCCCCC(=O)Nc1c(C)cccc1C(=O)O	106 to 113 °C
COc1cc(N)c(Cl)cc1C(=O)NCCC1CN(Cc2ccc(C#N)cc2)CCO1 (stereo not given)	180 to 182 °C
Cc1cc(O)cc2cc(-c3ccc(O)c(F)c3)oc12	196 to 198 °C
CS(=O)c1ccc(-c2oncc2CCCO)cc1 (stereo not given)	73 to 74 °C
COc1cc(F)c(C(=O)CCl)c(OC)c1	93 to 96 °C
CN(C)c1ccnc(N(C)C2CCN(CCCC(c3ccc(F)cc3)c3ccc(F)cc3)CC2)n1	106 °C
O=C(O)COc1ccc2cc(-c3oc4ccccc4c3C(=O)c3ccccc3)ccc2c1	178 to 181 °C
O=C1CCC(c2ccc(Cl)c(Cl)c2)c2ccccc21 (stereo not given)	99 to 101 °C
CC(C)(C)NCC(O)COc1ccccc1-c1ccc(Cl)nn1 (stereo not given)	93 to 94 °C
COc1ccc(C(=O)O)cc1CCCN(C)C	135 to 138 °C
O=C(O)c1ccc(NCCCc2ccc(Cl)cc2)cc1	191 to 192 °C
CCOC(=O)C=CNC(=O)Nc1ccc(Cl)c(C(=O)OCC)c1	116 to 117 °C
N#CN1CCN(c2nn(S(=O)(=O)c3ccccc3)c3cc(Cl)ccc23)CC1	179 to 181 °C
CC(C)(C)[Si](C)(C)OC1CN(S(C)(=O)=O)Cc2nc3c(N)nc4ccccc4c3n2C1 (stereo not given)	256 to 258 °C
O=c1c2ccc(Cl)cc2[nH]c2c(=O)n(-c3ccc(Cl)cc3)nc(O)c12	> 400 °C
C=CCOC(=O)c1ccc(NC(=O)C(C(=O)OC)c2ccc3c(c2)C(C)(C)CCC3(C)C)cc1 (stereo not given)	155 to 156 °C
O=S(=O)(Nc1c(F)cccc1F)c1nc2ncc(Cl)cn2n1	224 to 226 °C
Nc1cccc(-c2ccc(C3CCNC3=O)cc2F)n1 (stereo not given)	185 to 188 °C
COCc1nccn1CC(=O)c1ccc(-c2ccc(N3C[C@H](Cn4ccnn4)OC3=O)cc2F)cn1	78 to 80 °C
COc1cc2c(Nc3cccc(Br)c3)c(C#N)cnc2c(OC)c1OC	211 to 213 °C
CCCCCCc1nc2c(N)nc3ccccc3c2n1CCCCNC(=O)Nc1ccccc1	170 to 172 °C
Cc1cc(Cl)c2c(c1)C(=O)N(C(C)(C)C)CC(=O)N2	151 to 152 °C

Structure (SMILES)	melting point
CCNC1CN(c2cc3c(cc2F)c(=O)c2c(=O)[nH]sc2n3C2CC2)C1	231 to 236 °C
Nc1ccccc1C(=O)CCC(=O)O	103 to 107 °C
COc1ccc(-c2nc3n(c2-c2ccc(OC)cc2)C(F)C(F)(F)S3)cc1 (stereo not given)	160 to 162 °C
Cc1cc(-c2nc3cc(NC(=O)c4c(C(=O)N5CCC5)cnn4C)ccn3n2)ccn1	210 to 211 °C
CCCCCCCCCCCCCCCCn1c(-c2ccc(Cl)c(N)c2)nc2ccccc21	162 to 163 °C
O=c1[nH]c2ccccc2c2cc(C(O)c3ccccc3)nn12 (stereo not given)	231 to 233 °C
COC(=O)C1CCN(c2ccc(Cl)c(CBr)c2Cl)C1 (stereo not given)	94 °C
CCCCCS(=O)(=O)NC(=O)/C(C)=C/c1ccc(OCCOC)cc1Oc1ncc(C(F)(F)F)cc1Cl	108 to 111 °C
C=CCOc1cc(C(=O)CCCCCCCCCCCCC)c(O)c(C)c1C	65 to 66 °C
CCOC(=O)C=C(C)NC(=O)Nc1cc(OC(C)C)c(Cl)cc1F	142 to 144 °C
CC(C)(C)OC(=O)NC1C2CN(CC(O)(c3ccccc3)c3ccccc3)CC21 (stereo not given)	127 to 131 °C
COC(=O)c1[nH]c2c(C)ccc(C)c2c1[N+](=O)[O-]	193 to 194 °C
COCOc1cc(F)ccc1-c1cc(-c2cccc(C(=O)O)c2)c(C#N)c(NC(=O)c2ccco2)n1	254 °C
O=CC(=Cc1ccccc1)C(C=O)=Cc1ccccc1	109 to 110 °C
COc1cccc(-c2c(C(=O)O)c(=O)n(C)c3ncccc23)c1	196 to 197 °C
Cn1c(=O)c2ccccc2n(CCCBr)c1=O	90 to 96 °C
CC(C)(C)OC(=O)N1CCc2c(n(CCOc3ccc(F)cc3)c3ccc(Cl)c(Cl)c23)CC1	164 to 166 °C
Nc1cncc(O)c1CCCOc1cccnc1Oc1cccc(Cl)c1	75 to 90 °C
COc1ccc(C(=O)Nc2ccccc2)cc1NCc1ccc(-c2ccccc2)cc1	222 to 223 °C
CC(C)(C)c1ccc(Nc2cccc3c2C(=O)N(C2CCC(=O)NC2=O)C3=O)cc1 (stereo not given)	228 to 230 °C
O=C(Nc1cccc(-c2cc(-c3c(Cl)cccc3Cl)no2)c1)C(Cl)Cl	167 °C
O=C(O)CCNC(=O)C(=Cc1cccc2ccccc12)CS	133 °C
N[C@@H](Cc1ccccc1C(F)(F)F)[C@H](O)c1ccc(F)cc1 (racemic)	57 to 58 °C
CCC(CC)c1ccc(Cl)c2nc3n(c12)CCCCN3c1cnc(N(C)C)cc1C	156 to 157 °C
CCOC(=O)CN1C(=O)[C@@H](N)[C@H](c2ccccc2)Sc2cc(Cl)ccc21 (relative stereo)	173 to 175 °C

Structure (SMILES)	melting point
CC(=O)Nc1ccccc1C=C1c2ccccc2CCc2ccccc21	190 °C
COc1ccc(CN(CCN(C)CCCCCCNC(=O)NCCSCc2csc(NC(=N)N)n2)c2ccccn2)cc1	60 °C
CC(C)P1(=O)NCc2ccccc21 (stereo not given)	149 to 151 °C
CC(=O)CS(=O)(=O)CCc1ccc2c(c1)OCO2	97 to 99 °C
O=C(O)c1ccccc1Nc1ccc(CCc2ccc(N3CC[C@@H]4CCCC[C@H]4C3)cc2)cc1	203 to 206 °C
CCOC(=O)CN(CCc1ccccc1)C(=O)CCc1nc2c(F)c(F)cc(F)c2s1	78 to 81 °C
c1cnc(NC2CCN(C3CCCC3)CC2)nc1	118 °C
Cc1ccc(C(C)CC(=O)NC(C)c2ccc(NS(C)(=O)=O)c(F)c2)cc1C (stereo not given)	152 to 154 °C
CCOCc1cc2cc(Br)ccc2oc1=O	118 to 119 °C
COC(=O)C(N)Cc1ccc(Oc2ccc(O)cc2)cc1 (stereo not given)	123 to 124 °C
CC(C)C[C@H]1COCC(=O)N1	69 to 70 °C
COCCNc1cncc(C(N)=O)c1	79 to 80 °C
COc1cc2c(c3c1OC(C)(C)C3)C(c1ccccc1)=NC(CO)C2 (stereo not given)	156 to 158 °C
COC(=O)c1snc(-c2ccc(Cl)c(Cl)c2)c1C(=O)OC	105 to 107 °C
CS(=O)(=O)Cc1c(C(=O)c2cnoc2C2CC2)ccc(S(C)(=O)=O)c1Cl	110 °C
COc1ccc2c(c1)c(CC(=O)OCC(=O)OC(C)(C)C)c(C)n2C(=O)c1ccc(Cl)cc1	96 to 97 °C
COc1ccc2c(c1)-c1nn(CCCl)c3ccc([N+](=O)[O-])c(c13)N2	264 to 265 °C
CC(NC(=O)C1C(CO)N(Cc2ccccc2)C(=O)N1Cc1ccccc1)c1ccc2ccccc2c1 (stereo not given)	170 to 175 °C
O=c1[nH]c2nc(SCc3ccccc3)ncc2cc1Oc1ccc(F)cc1F	240 to 244 °C
Cc1cncn1-c1ccc(O)cc1	256 °C
CCN(CC)CCC1(C(N)=O)Cc2ccccc2N(CC)c2ccccc21 (stereo not given)	95 to 97 °C
CCC1CC(=O)N(Cc2cccc(C(=O)NC3CCCC3)c2)N=C1c1ccc(OC)c(OC)c1 (stereo not given)	54 °C
CCOC(=O)C=Cc1ccc(NC(=O)Oc2ccccc2)cc1	136 to 138 °C
CC[C@@H](C)[C@H]1c2ccccc2-c2ccccc2N1S(=O)(=O)c1ccc(O)cc1 (relative stereo)	115 to 118 °C
CC(=O)OC12Oc3cc(C(C)C)ccc3C1(OC(C)=O)C(=O)c1ccccc12 (stereo not given)	138 to 140 °C

Structure (SMILES)	melting point
CSc1cc2cccc(NS(=O)(=O)c3cccs3)c2[nH]1	102 to 103 °C
CCOC(CI)=Nc1ccc(Cl)cc1C(=O)c1ccccc1	67 to 68 °C
Cc1c(C(=O)O)sc2ccc(Br)cc12	> 300 °C
C#CCn1cc(C#N)c(CO)c1	95 °C
O=C1NCCC1=Cc1ccccc1OCC(O)CN1CCC(c2ccc3c(c2)CCCC3)CC1 (stereo not given)	157 to 159 °C
Cc1nc2cc3c(cc2c(=O)[nH]1)OCCO3	275 °C
C=CCOC(=O)NC(C)(C)c1ccc(-c2nc(Nc3ccc(CCN4CCOCC4)cc3)ncc2Cl)cc1	65 to 69 °C
CC(=O)OC1CSC(Oc2ccccc2C(C)=O)C(OC(C)=O)C1OC(C)=O (stereo not given)	112 °C
CCOC(=O)Nc1ccc2c(c1)C(c1ccccc1Cl)S(=O)(=O)CCC(=O)N2 (stereo not given)	295 to 296 °C
N#CC1=C(C#N)Sc2nc3cc([N+](=O)[O-])c([N+](=O)[O-])cc3nc2S1	230 to 233 °C
O=C1C(=Cc2ccc(Cl)cc2)C(c2ccc(Cl)cc2)Oc2ccc(O)cc21 (stereo not given)	228 to 230 °C
CCCCn1c(=O)c2c(Cl)cc(Cl)cc2n(Cc2ccccc2)c1=O	101 to 109 °C
CC(CNC(=O)[C@@H]1CSC(=O)N1)O[N+](=O)[O-] (stereo not given in full)	70 to 72 °C
C/C(=C\c1ccc(C(F)(F)F)cc1)[C@H]1OC[C@H](SCc2ccc(Cl)cc2)CO1	93 to 95 °C
CCn1ncc2c3c(cnc21)C(N)(OC)N=C1N=CNN13 (stereo not given)	215 to 216 °C
Cc1ccccc1OS(=O)(=O)c1cc(S(N)(=O)=O)c(Oc2ccccc2)cc1Cl	157 to 159 °C
CCC1(O)CCC2(C)C(CCC3C4CCC(C(C)=O)C4(C)CC(=O)C32)C1 (stereo not given)	129 °C
CC(=NOCCO)c1ccc(N(C)S(=O)(=O)c2ccccc2)cc1	76 to 77 °C
CCOC(=O)C(C#N)=CNNCC(=Cc1ccccc1)c1ccccc1	129 to 133 °C
CC(C(=O)O)c1ccc(-c2ccc(O)cc2)cc1 (stereo not given)	205 to 206 °C
CC1Oc2ccc(Cn3ccnc3)cc2NC1N (stereo not given)	152 to 156 °C
C#CCCCCCCCCC(c1ccc(Cl)cc1)C1(S(=O)(=O)c2ccc(OC)cc2)SC(=O)NC1=O (stereo not given)	114 to 121 °C
CC(=O)NCc1ccc(CN2CCN(c3ccc(F)cc3)CC2)cc1Cl	141 to 142 °C
O=C1CCC(c2ccccc2)(c2ccccc2)C2CN(C(Cc3ccccc3)=NCCc3ccccc3)CC12 (stereo not given)	188 °C
O=Nc1c(-c2ccccc2)nc2ncccn12	223 to 225 °C

Source: a melting point compilation (Tetko et al.; mined from patent text by program, amines drawn as free bases though some values may be those of a salt)
